Experimental findings from EP3782997A1, “FUSED PYRIMIDINE COMPOUNDS AND PHARMACEUTICAL COMPOSITIONS THEREOF FOR THE TREATMENT OF FIBROTIC DISEASES” (Galapagos N.V., priority 2019, dated 2021) are described below.

Broadly, the IC50 is the concentration that inhibits the measured activity by half. Lower therefore signals greater potency in that assay.

Some results are limits rather than exact numbers.

This test deals with hENPP2 (Homo sapiens, UniProt Q13822). Description: Human ENPP2 (hENPP2) biochemical assay using LPC as substrate. As to conditions: 150 µM LPC (palmitoyl 16:0), 37°C for 30 min. Put shortly:
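Enzyme at 1 or 3 µg/mL final in Tris-HCl pH 8.5, NaCl, KCl, CaCl2, fatty-acid-free BSA; reaction started with 150 µM LPC 16:0 (as added), 30 min at 37°C. Released choline developed with choline oxidase/peroxidase/TOOS/4-aminoantipyrine plus EGTA stop, read at 555 nm after 30 min; 1/3 dilutions from 50 µM give IC50.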
`Cc1cc(C)cc(Nc2ncc3c(n2)CN(C2CC4(C2)CN(C(=O)c2ccc5[nH]nnc5c2)C4)C3)c1` [compound 41, 1H-benzotriazol-5-yl-[6-[2-(3,5-dimethylanilino)-5,7-dihydropyrrolo[3,4-d]pyrimidin-6-yl]-2-azaspiro[3.3]heptan-2-yl]methanone] gave an IC50 of 500 to 1000 nM. For `COc1cc(Nc2ncc3c(n2)CN(C2CCN(C(=O)c4ccc5[nH]nnc5c4)C2)C3)cc(OC)c1` (stereo not shown) [compound 42, 1H-benzotriazol-5-yl-[3-[2-(3,5-dimethoxyanilino)-5,7-dihydropyrrolo[3,4-d]pyrimidin-6-yl]pyrrolidin-1-yl]methanone] the value was 100 to 500 nM. The value for `Cc1cncc(Nc2ncc3c(n2)CN(C2CN(C(=O)c4ccc5[nH]nnc5c4)C2)C3)c1` [compound 43, 1H-benzotriazol-5-yl-[3-[2-[(5-methyl-3-pyridyl)amino]-5,7-dihydropyrrolo[3,4-d]pyrimidin-6-yl]azetidin-1-yl]methanone] was 500 to 1000 nM. The value for `Cc1cncc(Nc2ncc3c(n2)CN(C2CCN(C(=O)c4ccc5[nH]nnc5c4)C2)C3)c1` (stereo not shown) [compound 44, 1H-benzotriazol-5-yl-[3-[2-[(5-methyl-3-pyridyl)amino]-5,7-dihydropyrrolo[3,4-d]pyrimidin-6-yl]pyrrolidin-1-yl]methanone] was > 1000 nM. Regarding `Cc1cncc(Nc2ncc3c(n2)CN(C2CCN(C(=O)c4ccc(S(N)(=O)=O)cc4)C2)C3)c1` (stereo not shown) [compound 45, 4-[3-[2-[(5-methyl-3-pyridyl)amino]-5,7-dihydropyrrolo[3,4-d]pyrimidin-6-yl]pyrrolidine-1-carbonyl]benzenesulfonamide], the IC50 is > 1000 nM. The value for `Cn1nc(C(C)(C)C)cc1Nc1ncc2c(n1)CN(C1CN(C(=O)c3ccc4[nH]nnc4c3)C1)C2` [compound 46, 1H-benzotriazol-5-yl-[3-[2-[(5-tert-butyl-2-methyl-pyrazol-3-yl)amino]-5,7-dihydropyrrolo[3,4-d]pyrimidin-6-yl]azetidin-1-yl]methanone] was > 1000 nM; that for `Cc1cncc(Nc2ncc3c(n2)CN(C2CCN(C(=O)c4ccc(S(N)(=O)=O)cc4)CC2)C3)c1` [compound 47, 4-[4-[2-[(5-methyl-3-pyridyl)amino]-5,7-dihydropyrrolo[3,4-d]pyrimidin-6-yl]piperidine-1-carbonyl]benzenesulfonamide] was > 1000 nM. Consider `Cc1cncc(Nc2ncc3c(n2)CN(C2CN(C(=O)c4ccc(S(N)(=O)=O)cc4)C2)C3)c1` [compound 48, 4-[3-[2-[(5-methyl-3-pyridyl)amino]-5,7-dihydropyrrolo[3,4-d]pyrimidin-6-yl]azetidine-1-carbonyl]benzenesulfonamide], for which the IC50 was > 1000 nM. For `Cc1cncc(Nc2ncc3c(n2)CN(C2CCN(C(=O)c4ccc5[nH]nnc5c4)CC2)C3)c1` [compound 49, 1H-benzotriazol-5-yl-[4-[2-[(5-methyl-3-pyridyl)amino]-5,7-dihydropyrrolo[3,4-d]pyrimidin-6-yl]-1-piperidyl]methanone] the value was 500 to 1000 nM. In the case of `Cn1nc(C(C)(C)C)cc1Nc1ncc2c(n1)CN(C1CCN(C(=O)c3ccc4[nH]nnc4c3)CC1)C2` [compound 50, 1H-benzotriazol-5-yl-[4-[2-[(5-tert-butyl-2-methyl-pyrazol-3-yl)amino]-5,7-dihydropyrrolo[3,4-d]pyrimidin-6-yl]-1-piperidyl]methanone], the IC50 was > 1000 nM. For `Cc1cc(C)nc(Nc2ncc3c(n2)CN(C2CN(C(=O)c4ccc5[nH]nnc5c4)C2)C3)c1` [compound 51, 1H-benzotriazol-5-yl-[3-[2-[(4,6-dimethyl-2-pyridyl)amino]-5,7-dihydropyrrolo[3,4-d]pyrimidin-6-yl]azetidin-1-yl]methanone], the concentration for half-maximal inhibition (IC50) lay within 500 to 1000 nM.

For the molecule `Cc1cc(C)nc(Nc2ncc3c(n2)CN(C2CN(C(=O)c4ccc5[nH]c(=O)oc5c4)C2)C3)c1` [compound 52, 6-[3-[2-[(4,6-dimethyl-2-pyridyl)amino]-5,7-dihydropyrrolo[3,4-d]pyrimidin-6-yl]azetidine-1-carbonyl]-3H-1,3-benzoxazol-2-one], the IC50 fell in the range of 100 to 500 nM. Molecule `O=C(c1ccc2[nH]nnc2c1)N1CC(N2Cc3cnc(Nc4cc(F)cc(F)c4)nc3C2)C1` [compound 53, 1H-benzotriazol-5-yl-[3-[2-(3,5-difluoroanilino)-5,7-dihydropyrrolo[3,4-d]pyrimidin-6-yl]azetidin-1-yl]methanone] gave an IC50 of 100 to 500 nM. For `O=C(c1ccc2[nH]nnc2c1)N1CCC(N2Cc3cnc(Nc4cc(F)cc(F)c4)nc3C2)CC1` [compound 54, 1H-benzotriazol-5-yl-[4-[2-(3,5-difluoroanilino)-5,7-dihydropyrrolo[3,4-d]pyrimidin-6-yl]-1-piperidyl]methanone] the value was 100 to 500 nM; for `O=C(c1ccc2[nH]c(=O)oc2c1)N1CCC(N2Cc3cnc(Nc4cc(F)cc(F)c4)nc3C2)CC1` [compound 55, 6-[4-[2-(3,5-difluoroanilino)-5,7-dihydropyrrolo[3,4-d]pyrimidin-6-yl]piperidine-1-carbonyl]-3H-1,3-benzoxazol-2-one], 100 to 500 nM; for `Cc1cc(C)nc(Nc2ncc3c(n2)CN(C2CCN(C(=O)c4ccc5nn[nH]c5c4)CC2)C3)c1` [compound 56, 3H-benzotriazol-5-yl-[4-[2-[(4,6-dimethyl-2-pyridyl)amino]-5,7-dihydropyrrolo [3,4-d]pyrimidin-6-yl]-1-piperidyl]methanone], > 1000 nM. For `O=C(c1ccc2[nH]c(=O)oc2c1)N1CC(N2Cc3cnc(Nc4cc(F)cc(F)c4)nc3C2)C1` [compound 57, 6-[3-[2-(3,5-difluoroanilino)-5,7-dihydropyrrolo[3,4-d]pyrimidin-6-yl]azetidine-1-carbonyl]-3H-1,3-benzoxazol-2-one] the value was 0.01 to 100 nM; for `N#Cc1ccc(Nc2ncc3c(n2)CN(C2CN(C(=O)c4ccc5[nH]nnc5c4)C2)C3)cc1` [compound 58, 4-[[6-[1-(1H-benzotriazole-5-carbonyl)azetidin-3-yl]-5,7-dihydropyrrolo[3,4-d]pyrimidin-2-yl]amino]benzonitrile], 0.01 to 100 nM; for `N#Cc1ccc(Nc2ncc3c(n2)CN(C2CCN(C(=O)c4ccc5[nH]nnc5c4)CC2)C3)cc1` [compound 59, 4-[[6-[1-(1H-benzotriazole-5-carbonyl)-4-piperidyl]-5,7-dihydropyrrolo[3,4-d]pyrimidin-2-yl]amino]benzonitrile], 0.01 to 100 nM. Consider `Cc1cc(C)cc(Nc2ncc3c(n2)CN(C2CCN(C(=O)c4ccc5[nH]c(=S)oc5c4)CC2)C3)c1` [compound 61, [4-[2-(3,5-dimethylanilino)-5,7-dihydropyrrolo[3,4-d]pyrimidin-6-yl]-1-piperidyl]-(2-thioxo-3H-1,3-benzoxazol-6-yl)methanone], for which the IC50 was in the range of 0.01 to 100 nM. Take `Cc1cc(C)cc(Nc2ncc3c(n2)CN(C2CN(C(=O)c4ccc5[nH]c(=S)oc5c4)C2)C3)c1` [compound 62, [3-[2-(3,5-dimethylanilino)-5,7-dihydropyrrolo[3,4-d]pyrimidin-6-yl]azetidin-1-yl]-(2-thioxo-3H-1,3-benzoxazol-6-yl)methanone]: the IC50 is 0.01 to 100 nM. Take `Cc1cc(C)cc(Nc2ncc3c(n2)CN(C2CC4CC2CN4C(=O)c2ccc4[nH]nnc4c2)C3)c1` (stereo not shown) [compound 63, 1H-benzotriazol-5-yl-[5-[2-(3,5-dimethylanilino)-5,7-dihydropyrrolo[3,4-d]pyrimidin-6-yl]-2-azabicyclo[2.2.1]heptan-2-yl]methanone]: the IC50 was > 1000 nM.
